Values quoted from earlier work in PubChem BioAssay AID1259409 (Chemical Carcinogenesis Research Information System (CCRIS), 2018).

Tested on: rodent chemically induced tumor inhibition, incidence and multiplicity
Experiment: CCRIS tumor inhibitor studies

Cc1cc(C(C)(C)C)c(O)c(C(C)(C)C)c1
tumour outcome (control, treated, inhibition, significance) (Carcinogen: 7,12-DIMETHYLBENZ[A]ANTHRACENE, 57-97-6, Dose [Inhibitor]: 200 MG ML 1 ML IN OLIVE OIL ONCE (STUDY DURATION: 18 WK), Route [Inhibitor]: GAVAGE, Species: RAT, Strain/Sex: SPRAGUE-DAWLEY/FEMALE, Target Tissue: Type of Lesion: MAMMARY GLAND: TUMOR, Dose [Carcinogen]: 12 MG IN 1 ML OLIVE OIL ADMINISTERED 1 HR AFTER INHIBITOR, Promoter: NONE USED): 27/34 (79%), 5/18 (28%), 64%, p<0.01 | tumour outcome (control, treated, inhibition, significance) (Carcinogen: 7,12-DIMETHYLBENZ[A]ANTHRACENE, 57-97-6, Dose [Inhibitor]: 1000 UG APPLIED 6 HR BEFORE, 5 MIN BEFORE, AND 6 HR AFTER DMBA (STUDY DURATION: 28 WK), Route [Inhibitor]: DERMAL, Species: MOUSE, Strain/Sex: CD-1/FEMALE, Target Tissue: Type of Lesion: SKIN: PAPILLOMA, Dose [Carcinogen]: 2.56 UG APPLIED ONCE 5 MIN AFTER INHIBITOR, Promoter: 12-O-TETRADECANOYLPHORBOL-13-ACETATE, 16561-29-8): (82%, 35%, 57%, not calculated | tumour outcome (control, treated, inhibition, significance) (Carcinogen: 7,12-DIMETHYLBENZ[A]ANTHRACENE, 57-97-6, Dose [Inhibitor]: 1000 UG APPLIED ONCE 5 MIN BEFORE DMBA (STUDY DURATION 28 WK), Route [Inhibitor]: DERMAL, Species: MOUSE, Strain/Sex: CD-1/FEMALE, Target Tissue: Type of Lesion: SKIN: PAPILLOMA, Dose [Carcinogen]: 2.56 UG APPLIED ONCE 5 MIN AFTER INHIBITOR, Promoter: 12-O-TETRADECANOYLPHORBOL-13-ACETATE, 16561-29-8): 82%, 57%, 30%, not calculated | tumour outcome (control, treated, inhibition, significance) (Carcinogen: 7,12-DIMETHYLBENZ[A]ANTHRACENE, 57-97-6, Dose [Inhibitor]: 2500 MG/KG IN DIET STARTING 2 WK BEFORE UNTIL 1 WK AFTER CARCINOGEN ADMINISTRATION (STUDY DURATION: 32 WK), Route [Inhibitor]: ORAL, Species: RAT, Strain/Sex: SPRAGUE-DAWLEY/FEMALE, Target Tissue: Type of Lesion: MAMMARY GLAND: TUMOR, Dose [Carcinogen]: 8 MG IN 1 ML SESAME OIL ADMINISTERED ONCE, Promoter: NONE USED): 88%, 68%, 23%, not significant | tumour outcome (control, treated, inhibition, significance) (Carcinogen: BENZO[A]PYRENE, 50-32-8, Dose [Inhibitor]: 5 MG/G DIET IN SESAME OIL (4%) 3/WK FOR 28 D SIMULTANEOUSLY WITH CARCINOGEN (STUDY DURATION: 21 WK), Route [Inhibitor]: ORAL, Species: MOUSE, Strain/Sex: A/HEJ/FEMALE, Target Tissue: Type of Lesion: FORESTOMACH: TUMOR, Dose [Carcinogen]: 1 MG/G DIET IN 4% SESAME OIL IN DIET 3/WK FOR 28 D, Promoter: NONE USED): 12/12 (100%), 2/9 (22%), 78%, p<0.001 | tumour outcome (control, treated, inhibition, significance) (Carcinogen: BENZO[A]PYRENE, 50-32-8, Dose [Inhibitor]: 10 MG/G DIET 3/WK FOR 28 D SIMULTANEOUSLY WITH CARCINOGEN (STUDY DURATION: 28 WK), Route [Inhibitor]: ORAL, Species: MOUSE, Strain/Sex: ICR/FEMALE, Target Tissue: Type of Lesion: FORESTOMACH: TUMOR, Dose [Carcinogen]: 0.3 MG/G DIET 3/WK FOR 28 D, Promoter: NONE USED): 13/19 (68%), 10/20 (50%), 26%, not significant | tumour outcome (control, treated, inhibition, significance) (Carcinogen: DIETHYLNITROSAMINE, 55-18-5, Dose [Inhibitor]: 0, 50 MG/KG IN CORN OIL FOR DURATION OF STUDY BEGINNING 7 D PRIOR TO FIRST CARCINOGEN DOSE (STUDY DURATION: 6 MO), Route [Inhibitor]: GAVAGE, Species: RAT, Strain/Sex: BD6/FEMALE, Target Tissue: Type of Lesion: ESOPHAGUS: TUMOR, Dose [Carcinogen]: 80 MG/KG BW 1/WK FOR 6 WK, Promoter: NONE USED): 14%, 0%, 100%, not significant | tumour outcome (control, treated, inhibition, significance) (Carcinogen: DIETHYLNITROSAMINE, 55-18-5, Dose [Inhibitor]: 0, 50 MG/KG IN CORN OIL FOR DURATION OF STUDY BEGINNING 7 D PRIOR TO FIRST CARCINOGEN DOSE (STUDY DURATION: 6 MO), Route [Inhibitor]: GAVAGE, Species: RAT, Strain/Sex: BD6/FEMALE, Target Tissue: Type of Lesion: ESOPHAGUS: TUMOR, Dose [Carcinogen]: 80 MG/KG BW 1/WK FOR 8 WK, Promoter: NONE USED): 20%, 4%, 80%, not significant | tumour outcome (control, treated, inhibition, significance) (Carcinogen: DIETHYLNITROSAMINE, 55-18-5, Dose [Inhibitor]: 0, 50 MG/KG IN CORN OIL FOR DURATION OF STUDY BEGINNING 7 D PRIOR TO FIRST CARCINOGEN DOSE (STUDY DURATION: 6 MO), Route [Inhibitor]: GAVAGE, Species: RAT, Strain/Sex: BD6/FEMALE, Target Tissue: Type of Lesion: LIVER: TUMOR, Dose [Carcinogen]: 80 MG/KG BW 1/WK FOR 6 WK, Promoter: NONE USED): 52%, 23%, 56%, not significant | tumour outcome (control, treated, inhibition, significance) (Carcinogen: DIETHYLNITROSAMINE, 55-18-5, Dose [Inhibitor]: 0, 50 MG/KG IN CORN OIL FOR DURATION OF STUDY BEGINNING 7 D PRIOR TO FIRST CARCINOGEN DOSE (STUDY DURATION: 6 MO), Route [Inhibitor]: GAVAGE, Species: RAT, Strain/Sex: BD6/FEMALE, Target Tissue: Type of Lesion: LIVER: TUMOR, Dose [Carcinogen]: 80 MG/KG BW 1/WK FOR 8 WK, Promoter: NONE USED): 83%, 72%, 13%, not significant | tumour outcome (control, treated, inhibition, significance) (Carcinogen: HYDRAZINE SULFATE, 10034-93-2, Dose [Inhibitor]: 5000 PPM IN DIET STARTING 1 WK PRIOR TO ADMINISTRATION OF CARCINOGEN UNTIL END OF EXPERIMENT (STUDY DURATION: APPROXIMAT, Route [Inhibitor]: ORAL, Species: MOUSE, Strain/Sex: SWISS/MALE, FEMALE, Target Tissue: Type of Lesion: LIVER AND LUNG: COMBINED TUMORS, Dose [Carcinogen]: 1.1 MG/D 5 D/WK UNTIL 12 MO OF AGE, Promoter: NONE USED): 24/29 (83%), 19/28 (68%), 18%, not significant | tumour outcome (control, treated, inhibition, significance) (Carcinogen: ISONIAZID, 54-85-3, Dose [Inhibitor]: 5000 PPM IN DIET STARTING 1 WK PRIOR TO ADMINISTRATION OF CARCINOGEN UNTIL END OF EXPERIMENT (STUDY DURATION: APPROXIMAT, Route [Inhibitor]: ORAL, Species: MOUSE, Strain/Sex: SWISS/MALE, FEMALE, Target Tissue: Type of Lesion: LIVER AND LUNG: COMBINED TUMORS, Dose [Carcinogen]: 1.1 MG/D 5 D/WK UNTIL 25 M OF AGE, Promoter: NONE USED): 16/29 (55%), 4/20 (20%), 64%, p<0.05 | tumour outcome (control, treated, inhibition, significance) (Carcinogen: ISONIAZID, 54-85-3, Dose [Inhibitor]: 5000 PPM IN DIET STARTING 1 WK PRIOR TO ADMINISTRATION OF CARCINOGEN UNTIL END OF EXPERIMENT (STUDY DURATION: APPROXIMAT, Route [Inhibitor]: ORAL, Species: MOUSE, Strain/Sex: SWISS/MALE, FEMALE, Target Tissue: Type of Lesion: LIVER AND LUNG: COMBINED TUMORS, Dose [Carcinogen]: 1.1 MG/D 5 D/WK UNTIL 25 MO OF AGE, Promoter: NONE USED): 16/29 (55%), 5/20 (25%), 54%, p<0.05 | tumour outcome (control, treated, inhibition, significance) (Carcinogen: N-BIS(2-HYDROXYPROPYL)NITROSAMINE, 53609-64-6, Dose [Inhibitor]: 0, 1% IN DIET FOR 30 WK BEGINNING POST CARCINOGEN TREATMENT (STUDY DURATION: 32 WK), Route [Inhibitor]: ORAL, Species: RAT, Strain/Sex: F344/MALE, Target Tissue: Type of Lesion: BLADDER: ADENOMA, Dose [Carcinogen]: 0.1% IN DRINKING WATER FOR 2 WK, Promoter: NONE USED): 5%, 0%, 100%, not calculated | tumour outcome (control, treated, inhibition, significance) (Carcinogen: N-BIS(2-HYDROXYPROPYL)NITROSAMINE, 53609-64-6, Dose [Inhibitor]: 0, 1% IN DIET FOR 30 WK BEGINNING POST CARCINOGEN TREATMENT (STUDY DURATION: 32 WK), Route [Inhibitor]: ORAL, Species: RAT, Strain/Sex: F344/MALE, Target Tissue: Type of Lesion: KIDNEY: TUMOR, Dose [Carcinogen]: 0.1% IN DRINKING WATER FOR 2 WK, Promoter: NONE USED): 10%, 30%, -200%, not calculated
